Measurements as given in patent publication US20240270762A1, “PENICILLIN-BINDING PROTEIN INHIBITORS” (priority 2021, published 2024).
≈ marks a conversion by molar mass, not a printed value.

Legend:
[1] = target: T1, PBP1a from Acinetobacter baumannii (ATCC 19606) (Acinetobacter baumannii, UniProt A0ABX6CK30); assay: Bocillin-FL fluorescence polarization competition binding, A. baumannii PBP1a; conditions: fluorescence polarization competition binding assay using Bocillin-FL; read-out: A. baumannii PBP1a Potency
T1 sequence (A0ABX6CK30 1-851): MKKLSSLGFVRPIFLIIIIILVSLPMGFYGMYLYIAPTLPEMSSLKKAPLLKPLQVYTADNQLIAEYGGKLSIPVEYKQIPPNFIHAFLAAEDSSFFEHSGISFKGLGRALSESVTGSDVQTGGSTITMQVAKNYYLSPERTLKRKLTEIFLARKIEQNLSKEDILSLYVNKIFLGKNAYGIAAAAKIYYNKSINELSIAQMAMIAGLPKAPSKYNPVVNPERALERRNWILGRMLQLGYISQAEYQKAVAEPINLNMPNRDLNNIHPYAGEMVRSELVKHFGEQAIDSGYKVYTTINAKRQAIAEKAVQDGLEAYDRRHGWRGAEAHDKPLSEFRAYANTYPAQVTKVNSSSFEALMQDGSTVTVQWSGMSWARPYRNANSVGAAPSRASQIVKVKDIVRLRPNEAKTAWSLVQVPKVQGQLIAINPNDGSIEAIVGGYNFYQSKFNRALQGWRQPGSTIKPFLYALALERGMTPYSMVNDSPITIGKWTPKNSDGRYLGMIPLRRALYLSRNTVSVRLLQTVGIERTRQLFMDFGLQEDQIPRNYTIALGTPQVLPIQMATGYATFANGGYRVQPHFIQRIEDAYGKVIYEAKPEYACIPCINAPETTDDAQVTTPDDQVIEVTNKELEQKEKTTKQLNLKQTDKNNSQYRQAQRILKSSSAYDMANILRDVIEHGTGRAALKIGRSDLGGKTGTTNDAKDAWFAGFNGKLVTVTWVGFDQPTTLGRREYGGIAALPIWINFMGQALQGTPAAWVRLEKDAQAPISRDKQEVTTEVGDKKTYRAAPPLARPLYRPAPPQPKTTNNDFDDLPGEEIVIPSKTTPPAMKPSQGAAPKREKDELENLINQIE
Summary of the method: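 Purified PBP was preincubated with inhibitor (E. coli PBP3 1.5 μM, 30 min; P. aeruginosa PBP3 0.75 μM, A. baumannii PBP3 0.2 μM and PBP1a 1 μM, 15 min), then Bocillin-FL (0.1 μM; 0.05 μM for PBP1a) added and FP read up to 60 min. EC50 = 50% loss of bound probe.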

N. gonorrhoeae WHO Z = assay: Liquid broth MIC in Fastidious broth; conditions: Neisseria gonorrhoeae, read-out: Minimum Inhibitory Concentration, WHO Z
N. gonorrhoeae WHO Q = assay: Liquid broth MIC in Fastidious broth; conditions: Neisseria gonorrhoeae, read-out: Minimum Inhibitory Concentration, WHO Q
Protocol: Liquid broth-based assays were used for antibacterial testing of PBP inhibitors in Neisseria gonorrhoeae. Briefly, cryo-preserved bacterial cultures of clinical strains were streaked for isolation on Chocolate Agar (72 g/L (2×) GC Agar Base (BD #228950) and 2% (2×) Hemoglobin was autoclaved at 121° C. for 20 minutes to sterilize. Once cooled to ˜50° C. the 2×GC Agar Base and 2× Hemoglobin solutions are combined and 1% IsoVitaleX Enrichment (BD #211876) was added to the solution). Strains were incubated at 36° C. and 5% CO2 to allow growth of colonies, 24 hours before inoculum preparation. 2-fold serial dilutions of test compounds were conducted in a 96 well plate with a final volume of 75 μL per well at 2-fold the final desired concentration in Fastidious broth (Remel #R07664). For preparation of assay inoculum, a direct suspension was prepared by aseptically swabbing 10-15 colonies from agar plates into culture tubes containing 2 mL of fresh sterile saline. After the dilution plates were set up, direct suspensions were then diluted in a cuvette containing sterile saline and the optical density was measured at 600 nm. Inocula were diluted such that 75 μL of this culture in Fastidious broth results in a starting bacterial concentration of 5×10^5 CFU/mL when added to the dilution plates. The plates were incubated for ˜24 hours at 36° C. and 5% CO2.

Compound | IC50 [1] | MIC (N. gonorrhoeae WHO Z) | MIC (N. gonorrhoeae WHO Q)
O=C(NCCCS(=O)(=O)N1CCN(C(=O)NC(C(=O)N[C@H]2Cc3ccc(F)c(C(=O)O)c3OB2O)c2cc(F)c(O)c(O)c2Cl)C1=O)Nc1cccc(O)c1 (stereo partly drawn) [Example 277, (3R)-3-(2-(2-chloro-5-fluoro-3,4-dihydroxyphenyl)-2-(3-((3-(3-(3-hydroxyphenyl)ureido)propyl)sulfonyl)-2-oxoimidazolidine-1-carboxamido)acetamido)-7-fluoro-2-hydroxy-3,4-dihydro-2H-benzo[e][1,2]oxaborinine-8-carboxylic acid] | > 250 µM | 16 to 32 µg/mL (≈ 19.7 to 39.5 µM) | 16 to 32 µg/mL (≈ 19.7 to 39.5 µM)
O=C(NCCCS(=O)(=O)N1CCN(C(=O)NC(C(=O)N[C@H]2Cc3ccc(F)c(C(=O)O)c3OB2O)c2cc(F)c(O)c(O)c2Cl)C1=O)Nc1cccnc1 (stereo partly drawn) [Example 278, (3R)-3-(2-(2-chloro-5-fluoro-3,4-dihydroxyphenyl)-2-(2-oxo-3-((3-(3-(pyridin-3-yl)ureido)propyl)sulfonyl)imidazolidine-1-carboxamido)acetamido)-7-fluoro-2-hydroxy-3,4-dihydro-2H-benzo[e][1,2]oxaborinine-8-carboxylic acid] | > 250 µM | 16 to 32 µg/mL (≈ 20.1 to 40.2 µM) | 16 to 32 µg/mL (≈ 20.1 to 40.2 µM)
O=C(NCCN1CCN(C(=O)N[C@@H](C(=O)N[C@H]2Cc3ccc(F)c(C(=O)O)c3OB2O)c2cc(F)c(O)c(O)c2Cl)C1=O)Nc1ccc(O)cc1 [Example 279, (R)-3-((R)-2-(2-chloro-5-fluoro-3,4-dihydroxyphenyl)-2-(3-(2-(3-(4-hydroxyphenyl)ureido)ethyl)-2-oxoimidazolidine-1-carboxamido)acetamido)-7-fluoro-2-hydroxy-3,4-dihydro-2H-benzo[e][1,2]oxaborinine-8-carboxylic acid] | > 250 µM | 4 to 8 µg/mL (≈ 5.46 to 10.9 µM) | 16 to 32 µg/mL (≈ 21.8 to 43.7 µM)
O=C(NCCCN1CCN(C(=O)NC(C(=O)N[C@H]2Cc3ccc(F)c(C(=O)O)c3OB2O)c2cc(F)c(O)c(O)c2Cl)C1=O)c1ccc(O)cc1 (stereo partly drawn) [Example 280, (3R)-3-(2-(2-chloro-5-fluoro-3,4-dihydroxyphenyl)-2-(3-(3-(4-hydroxybenzamido)propyl)-2-oxoimidazolidine-1-carboxamido)acetamido)-7-fluoro-2-hydroxy-3,4-dihydro-2H-benzo[e][1,2]oxaborinine-8-carboxylic acid] | > 250 µM | 16 to 32 µg/mL (≈ 21.9 to 43.7 µM) | > 64 µg/mL
O=C(NCCCN1CCN(C(=O)NC(C(=O)N[C@H]2Cc3ccc(F)c(C(=O)O)c3OB2O)c2cc(F)c(O)c(O)c2Cl)C1=O)c1cccnc1 (stereo partly drawn) [Example 281, (3R)-3-(2-(2-chloro-5-fluoro-3,4-dihydroxyphenyl)-2-(3-(3-(nicotinamido)propyl)-2-oxoimidazolidine-1-carboxamido)acetamido)-7-fluoro-2-hydroxy-3,4-dihydro-2H-benzo[e][1,2]oxaborinine-8-carboxylic acid] | > 250 µM | 16 to 32 µg/mL (≈ 22.3 to 44.6 µM) | > 64 µg/mL
O=C(NCCCN1CCN(C(=O)N[C@H](C(=O)N[C@H]2Cc3ccc(F)c(C(=O)O)c3OB2O)c2cc(F)c(O)c(O)c2Cl)C1=O)Nc1ccc(O)cc1 [Example 283, (R)-3-((S)-2-(2-chloro-5-fluoro-3,4-dihydroxyphenyl)-2-(3-(3-(3-(4-hydroxyphenyl)ureido)propyl)-2-oxoimidazolidine-1-carboxamido)acetamido)-7-fluoro-2-hydroxy-3,4-dihydro-2H-benzo[e][1,2]oxaborinine-8-carboxylic acid] | > 250 µM | > 64 µg/mL | > 64 µg/mL
O=C(NCCCN1CCN(C(=O)N[C@@H](C(=O)N[C@H]2Cc3ccc(F)c(C(=O)O)c3OB2O)c2cc(F)c(O)c(O)c2Cl)C1=O)Nc1ccc(O)cc1 [Example 284, (R)-3-((R)-2-(2-chloro-5-fluoro-3,4-dihydroxyphenyl)-2-(3-(3-(3-(4-hydroxyphenyl)ureido)propyl)-2-oxoimidazolidine-1-carboxamido)acetamido)-7-fluoro-2-hydroxy-3,4-dihydro-2H-benzo[e][1,2]oxaborinine-8-carboxylic acid] | > 250 µM | 4 to 8 µg/mL (≈ 5.36 to 10.7 µM) | 4 to 8 µg/mL (≈ 5.36 to 10.7 µM)
O=C(NCCCN1CCN(C(=O)NC(C(=O)N[C@H]2Cc3ccc(F)c(C(=O)O)c3OB2O)c2cc(F)c(O)c(O)c2Cl)C1=O)Nc1ccncc1 (stereo partly drawn) [Example 285, (3R)-3-(2-(2-chloro-5-fluoro-3,4-dihydroxyphenyl)-2-(2-oxo-3-(3-(3-(pyridin-4-yl)ureido)propyl)imidazolidine-1-carboxamido)acetamido)-7-fluoro-2-hydroxy-3,4-dihydro-2H-benzo[e][1,2]oxaborinine-8-carboxylic acid] | > 250 µM | > 64 µg/mL | > 64 µg/mL
O=C(NCCS(=O)(=O)N1CCN(C(=O)N[C@H](C(=O)N[C@H]2Cc3ccc(F)c(C(=O)O)c3OB2O)c2cc(F)c(O)c(O)c2Cl)C1=O)c1ccc(O)cc1 [Example 286, (R)-3-((S)-2-(2-chloro-5-fluoro-3,4-dihydroxyphenyl)-2-(3-((2-(4-hydroxybenzamido)ethyl)sulfonyl)-2-oxoimidazolidine-1-carboxamido)acetamido)-7-fluoro-2-hydroxy-3,4-dihydro-2H-benzo[e][1,2]oxaborinine-8-carboxylic acid] | > 250 µM | > 64 µg/mL | > 64 µg/mL
O=C(NCCS(=O)(=O)N1CCN(C(=O)N[C@@H](C(=O)N[C@H]2Cc3ccc(F)c(C(=O)O)c3OB2O)c2cc(F)c(O)c(O)c2Cl)C1=O)c1ccc(O)cc1 [Example 287, (R)-3-((R)-2-(2-chloro-5-fluoro-3,4-dihydroxyphenyl)-2-(3-((2-(4-hydroxybenzamido)ethyl)sulfonyl)-2-oxoimidazolidine-1-carboxamido)acetamido)-7-fluoro-2-hydroxy-3,4-dihydro-2H-benzo[e][1,2]oxaborinine-8-carboxylic acid] | > 250 µM | 4 to 8 µg/mL (≈ 5.12 to 10.2 µM) | 4 to 8 µg/mL (≈ 5.12 to 10.2 µM)
O=C(NCCS(=O)(=O)N1CCN(C(=O)NC(C(=O)N[C@H]2Cc3ccc(F)c(C(=O)O)c3OB2O)c2cc(F)c(O)c(O)c2Cl)C1=O)c1ccncc1 (stereo partly drawn) [Example 288, (3R)-3-(2-(2-chloro-5-fluoro-3,4-dihydroxyphenyl)-2-(3-((2-(isonicotinamido)ethyl)sulfonyl)-2-oxoimidazolidine-1-carboxamido)acetamido)-7-fluoro-2-hydroxy-3,4-dihydro-2H-benzo[e][1,2]oxaborinine-8-carboxylic acid] | > 250 µM | 4 to 8 µg/mL (≈ 5.22 to 10.4 µM) | 16 to 32 µg/mL (≈ 20.9 to 41.7 µM)
O=C(O)c1c(F)ccc2c1OB(O)[C@@H](NC(=O)C(NC(=O)N1CCN(CC3CCN(C(=O)c4cccc(O)c4)CC3)C(=O)C1=O)c1cc(F)c(O)c(O)c1Cl)C2 (stereo partly drawn) [Example 475, (3R)-3-(2-(2-chloro-5-fluoro-3,4-dihydroxyphenyl)-2-(4-((1-(3-hydroxybenzoyl)piperidin-4-yl)methyl)-2,3-dioxopiperazine-1-carboxamido)acetamido)-7-fluoro-2-hydroxy-3,4-dihydro-2H-benzo[e][1,2]oxaborinine-8-carboxylic acid] | > 250 µM | – | –
O=C(O)c1c(F)ccc2c1OB(O)[C@@H](NC(=O)C(NC(=O)N1CCN(CC3CCN(C(=O)Nc4cccc(O)c4)CC3)C(=O)C1=O)c1cc(F)c(O)c(O)c1Cl)C2 (stereo partly drawn) [Example 477, (3R)-3-(2-(2-chloro-5-fluoro-3,4-dihydroxyphenyl)-2-(4-((1-((3-hydroxyphenyl)carbamoyl)piperidin-4-yl)methyl)-2,3-dioxopiperazine-1-carboxamido)acetamido)-7-fluoro-2-hydroxy-3,4-dihydro-2H-benzo[e][1,2]oxaborinine-8-carboxylic acid] | > 250 µM | – | –
O=C(O)c1c(F)ccc2c1OB(O)[C@@H](NC(=O)C(NC(=O)N1CCN(C3CCN(C(=O)Nc4cccc(O)c4F)CC3)C(=O)C1=O)c1cc(F)c(O)c(O)c1Cl)C2 (stereo partly drawn) [Example 478, (3R)-3-(2-(2-chloro-5-fluoro-3,4-dihydroxyphenyl)-2-(4-(1-((2-fluoro-3-hydroxyphenyl)carbamoyl)piperidin-4-yl)-2,3-dioxopiperazine-1-carboxamido)acetamido)-7-fluoro-2-hydroxy-3,4-dihydro-2H-benzo[e][1,2]oxaborinine-8-carboxylic acid] | > 250 µM | – | –
